In patent US20240208992A1, “MACROCYCLES AS CFTR MODULATORS” (Idorsia Pharmaceuticals Ltd, priority 2021, published 2024) one finds EC50 and Emax data, which are given here for 16 compounds.

The target in this test is human F508del-CFTR (Homo sapiens, UniProt P13569, DEL508-508). Nature of the test: F508del-CFTR cell surface expression (corrector activity), DiscoveRx ß-galactosidase complementation chemiluminescence assay in recombinant U2OS cell line.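 On all read-outs here: U2OS cells co-expressing ProLink-tagged F508del-CFTR and a membrane-anchored enzyme acceptor, where more surface CFTR restores β-galactosidase activity measured by chemiluminescence.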 The settings on record: U2OS cell line, 16h compound incubation; for pEC50: EC50, F508del-CFTR cell surface expression, geomean values; for Emax: U2OS, in relation to the Emax of the corrector lumacaftor (=100%), arithmetic mean values.
human F508del-CFTR, sequence (P13569 with tags, fused parts or gaps DEL508-508): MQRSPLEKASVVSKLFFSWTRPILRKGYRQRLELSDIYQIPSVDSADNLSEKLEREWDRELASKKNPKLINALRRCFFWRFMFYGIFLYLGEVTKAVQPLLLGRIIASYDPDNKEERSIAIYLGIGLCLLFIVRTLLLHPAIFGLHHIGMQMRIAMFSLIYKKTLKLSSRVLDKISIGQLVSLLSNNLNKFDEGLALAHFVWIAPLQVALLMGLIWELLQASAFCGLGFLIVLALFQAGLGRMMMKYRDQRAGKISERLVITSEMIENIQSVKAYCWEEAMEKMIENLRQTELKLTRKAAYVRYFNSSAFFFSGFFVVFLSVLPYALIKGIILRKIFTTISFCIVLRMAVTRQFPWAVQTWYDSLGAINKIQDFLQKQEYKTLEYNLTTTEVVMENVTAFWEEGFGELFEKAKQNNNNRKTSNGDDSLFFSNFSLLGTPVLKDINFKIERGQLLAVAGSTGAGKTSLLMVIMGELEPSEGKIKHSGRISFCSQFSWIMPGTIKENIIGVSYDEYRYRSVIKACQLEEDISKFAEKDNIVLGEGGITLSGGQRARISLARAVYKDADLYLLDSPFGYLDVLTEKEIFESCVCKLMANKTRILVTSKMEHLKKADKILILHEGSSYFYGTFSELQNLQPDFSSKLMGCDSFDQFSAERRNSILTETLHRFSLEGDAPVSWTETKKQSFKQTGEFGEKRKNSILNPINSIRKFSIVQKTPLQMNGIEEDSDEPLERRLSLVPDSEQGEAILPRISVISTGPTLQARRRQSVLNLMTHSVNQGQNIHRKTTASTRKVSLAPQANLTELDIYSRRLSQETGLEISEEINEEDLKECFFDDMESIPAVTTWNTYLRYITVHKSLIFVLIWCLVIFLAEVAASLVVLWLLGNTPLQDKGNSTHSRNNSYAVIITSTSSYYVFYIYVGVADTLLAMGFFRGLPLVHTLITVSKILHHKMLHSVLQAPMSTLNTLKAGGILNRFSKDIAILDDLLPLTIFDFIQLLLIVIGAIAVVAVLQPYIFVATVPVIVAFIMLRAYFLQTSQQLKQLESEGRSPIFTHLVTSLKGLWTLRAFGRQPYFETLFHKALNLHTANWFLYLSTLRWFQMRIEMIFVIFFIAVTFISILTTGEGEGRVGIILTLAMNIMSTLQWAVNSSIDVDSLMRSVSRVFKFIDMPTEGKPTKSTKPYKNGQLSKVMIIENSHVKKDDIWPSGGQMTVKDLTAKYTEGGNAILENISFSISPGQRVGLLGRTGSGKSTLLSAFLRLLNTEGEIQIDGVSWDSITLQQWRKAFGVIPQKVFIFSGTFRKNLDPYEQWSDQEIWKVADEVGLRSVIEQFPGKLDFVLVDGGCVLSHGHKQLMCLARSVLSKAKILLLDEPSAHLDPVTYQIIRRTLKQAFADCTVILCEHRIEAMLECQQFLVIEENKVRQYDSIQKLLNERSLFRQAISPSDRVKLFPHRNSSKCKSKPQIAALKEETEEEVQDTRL

pEC50: −log10 of the molar value.

Regarding `COCCCNC(=O)[C@@H]1CC(=O)N(C)[C@@H](CC(C)C)C(=O)N(CCC2CCCCC2)CC(=O)N[C@H](Cc2ccccc2)COc2cccc(OC)c2C(=O)N1` [Example 210, (3R,9S,13S)-3-benzyl-7-(2-cyclohexylethyl)-9-isobutyl-16-methoxy-N-(3-methoxypropyl)-10-methyl-5,8,11,15-tetraoxo-2,3,4,5,6,7,8,9,10,11,12,13,14,15-tetradecahydrobenzo[p][1]oxa[4,7,10,14]tetraazacycloheptadecine-13-carboxamide], the pEC50 – broadly, −log10 of the EC50, conventionally taken in molar units – is 6.45 and the Emax – broadly, the greatest response seen or fitted, relative to the assay's reference – worked out at 108%.

Take `COc1cccc2c1C(=O)N[C@H](C(=O)NCCc1ccccc1)CC(=O)N(C)[C@@H](CC(C)C)C(=O)N(CCC1CCCCC1)CC(=O)N[C@H](Cc1ccccc1)CO2` [Example 211, (3R,9S,13S)-3-benzyl-7-(2-cyclohexylethyl)-9-isobutyl-16-methoxy-10-methyl-5,8,11,15-tetraoxo-N-phenethyl-2,3,4,5,6,7,8,9,10,11,12,13,14,15-tetradecahydrobenzo[p][1]oxa[4,7,10,14]tetraazacycloheptadecine-13-carboxamide]: the negative-log EC50 (pEC50) is 6.51 and the Emax was found to be 146%.

With `COc1cccc2c1C(=O)N[C@H](C(=O)NCCc1cc(C)no1)CC(=O)N(C)[C@@H](CC(C)C)C(=O)N(CCC1CCCCC1)CC(=O)N[C@H](Cc1ccccc1)CO2` [Example 214, (3R,9S,13S)-3-benzyl-7-(2-cyclohexylethyl)-9-isobutyl-16-methoxy-10-methyl-N-(2-(3-methylisoxazol-5-yl)ethyl)-5,8,11,15-tetraoxo-2,3,4,5,6,7,8,9,10,11,12,13,14,15-tetradecahydrobenzo[p][1]oxa[4,7,10,14]tetraazacycloheptadecine-13-carboxamide], the pEC50 was 6.53 and the Emax came out at 221%.

As to `CCc1ccc(CCNC(=O)[C@@H]2CC(=O)N(C)[C@@H](CC(C)C)C(=O)N(CCC3CCCCC3)CC(=O)N[C@H](Cc3ccccc3)COc3cccc(OC)c3C(=O)N2)cc1` [Example 215, (3R,9S,13S)-3-benzyl-7-(2-cyclohexylethyl)-N-(4-ethylphenethyl)-9-isobutyl-16-methoxy-10-methyl-5,8,11,15-tetraoxo-2,3,4,5,6,7,8,9,10,11,12,13,14,15-tetradecahydrobenzo[p][1]oxa[4,7,10,14]tetraazacycloheptadecine-13-carboxamide], the negative-log EC50 (pEC50) was 6.67 and the Emax was 172%.

As to `COCCCCCNC(=O)[C@@H]1CC(=O)N(C)[C@@H](CC(C)C)C(=O)N(CCC2CCCCC2)CC(=O)N[C@H](Cc2ccccc2)COc2cccc(OC)c2C(=O)N1` [Example 216, (3R,9S,13S)-3-benzyl-7-(2-cyclohexylethyl)-9-isobutyl-16-methoxy-N-(5-methoxypentyl)-10-methyl-5,8,11,15-tetraoxo-2,3,4,5,6,7,8,9,10,11,12,13,14,15-tetradecahydrobenzo[p][1]oxa[4,7,10,14]tetraazacycloheptadecine-13-carboxamide], the pEC50 was 6.38 and the Emax is 102%.

As to `COc1cccc2c1C(=O)N[C@H](C(=O)NCCc1ccc(-n3cccn3)cc1)CC(=O)N(C)[C@@H](CC(C)C)C(=O)N(CCC1CCCCC1)CC(=O)N[C@H](Cc1ccccc1)CO2` [Example 217, (3R,9S,13S)-N-(4-(1H-pyrazol-1-yl)phenethyl)-3-benzyl-7-(2-cyclohexylethyl)-9-isobutyl-16-methoxy-10-methyl-5,8,11,15-tetraoxo-2,3,4,5,6,7,8,9,10,11,12,13,14,15-tetradecahydrobenzo[p][1]oxa[4,7,10,14]tetraazacycloheptadecine-13-carboxamide], the pEC50 was 6.69 and the Emax was found to be 135%.

With `COc1cc(CCNC(=O)[C@@H]2CC(=O)N(C)[C@@H](CC(C)C)C(=O)N(CCC3CCCCC3)CC(=O)N[C@H](Cc3ccccc3)COc3cccc(OC)c3C(=O)N2)ccc1N` [Example 218, (3R,9S,13S)-N-(4-amino-3-methoxyphenethyl)-3-benzyl-7-(2-cyclohexylethyl)-9-isobutyl-16-methoxy-10-methyl-5,8,11,15-tetraoxo-2,3,4,5,6,7,8,9,10,11,12,13,14,15-tetradecahydrobenzo[p][1]oxa[4,7,10,14]tetraazacycloheptadecine-13-carboxamide], the pEC50 was 6.45 and the Emax came to 143%.

On to `COc1cccc(CCNC(=O)[C@@H]2CC(=O)N(C)[C@@H](CC(C)C)C(=O)N(CCC3CCCCC3)CC(=O)N[C@H](Cc3ccccc3)COc3cccc(OC)c3C(=O)N2)n1` [Example 220, (3R,9S,13S)-3-benzyl-7-(2-cyclohexylethyl)-9-isobutyl-16-methoxy-N-(2-(6-methoxypyridin-2-yl)ethyl)-10-methyl-5,8,11,15-tetraoxo-2,3,4,5,6,7,8,9,10,11,12,13,14,15-tetradecahydrobenzo[p][1]oxa[4,7,10,14]tetraazacycloheptadecine-13-carboxamide], for which the negative-log EC50 (pEC50) was 6.59 and the maximal response (Emax) was determined as 103%.

As to `CC(C)C[C@H]1C(=O)N2CCOC[C@@H]2C(=O)N[C@H](Cc2ccccc2)COc2cnc3ccccc3c2C(=O)N[C@H](C(=O)NCCc2cc(C(F)(F)F)no2)CC(=O)N1C` [Example 221, (9S,13S,19aR,22R)-22-benzyl-13-isobutyl-12-methyl-7,11,14,20-tetraoxo-N-(2-(3-(trifluoromethyl)isoxazol-5-yl)ethyl)-7,8,9,10,11,12,13,14,16,17,19,19a,20,21,22,23-hexadecahydro-[1,4]oxazino[3′,4′:6,7][1]oxa[4,7,10,14]tetraazacycloheptadecino[17,16-c]quinoline-9-carboxamide], the pEC50 is 6.08 and the Emax is 229%.

`COc1cccc(CCNC(=O)[C@@H]2CC(=O)N(C)[C@@H](CC(C)C)C(=O)N3CCOC[C@@H]3C(=O)N[C@H](Cc3ccccc3)COc3ccc4ccccc4c3C(=O)N2)c1` [Example 222, (4aR,7R,18S,22S)-7-Benzyl-22-isobutyl-N-(3-methoxyphenethyl)-21-methyl-5,16,20,23-tetraoxo-1,2,4,4a,5,6,7,8,16,17,18,19,20,21,22,23-hexadecahydronaphtho[1,2-p][1,4]oxazino[3,4-f][1]oxa[4,7,10,14]tetraazacycloheptadecine-18-carboxamide]: the pEC50 is 6.67 and the maximal response (Emax) is 249%.

As for `CC(C)C[C@H]1C(=O)N(C)CC(=O)N[C@H](Cc2ccccc2)COc2cc3c(cc2C(=O)N[C@H](C(=O)NCCc2ccc4c(c2)OCO4)CC(=O)N1C)OCO3` [Example 223, (7R,13S,17S)-N-(2-(benzo[d][1,3]dioxol-5-yl)ethyl)-7-benzyl-13-isobutyl-11,14-dimethyl-9,12,15,19-tetraoxo-6,7,8,9,10,11,12,13,14,15,16,17,18,19-tetradecahydro-[1,3]dioxolo[4′,5′:4,5]benzo[1,2-p][1]oxa[4,7,10,14]tetraazacycloheptadecine-17-carboxamide], the pEC50 was 6.41 and the maximal response (Emax) amounted to 141%.

Consider `COc1cccc(CCNC(=O)[C@@H]2CC(=O)N(C)[C@@H](CC(C)C)C(=O)N(C)CC(=O)N[C@H](Cc3ccccc3)COc3cc4c(cc3C(=O)N2)OCO4)c1` [Example 224, (7R,13S,17S)-7-benzyl-13-isobutyl-N-(3-methoxyphenethyl)-11,14-dimethyl-9,12,15,19-tetraoxo-6,7,8,9,10,11,12,13,14,15,16,17,18,19-tetradecahydro-[1,3]dioxolo[4′,5′:4,5]benzo[1,2-p][1]oxa[4,7,10,14]tetraazacycloheptadecine-17-carboxamide], for which the pEC50 was 6.47 and the Emax is 144%.

On to `CCOc1cccc(CCNC(=O)[C@@H]2CC(=O)N(C)[C@@H](CC(C)C)C(=O)N(C)CC(=O)N[C@H](Cc3ccccc3)COc3cc4c(cc3C(=O)N2)OCO4)c1` [Example 225, (7R,13S,17S)-7-benzyl-N-(3-ethoxyphenethyl)-13-isobutyl-11,14-dimethyl-9,12,15,19-tetraoxo-6,7,8,9,10,11,12,13,14,15,16,17,18,19-tetradecahydro-[1,3]dioxolo[4′,5′:4,5]benzo[1,2-p][1]oxa[4,7,10,14]tetraazacycloheptadecine-17-carboxamide], for which the pEC50 was 6.72 and the Emax is 110%.

In the case of `CC(C)C[C@H]1C(=O)N(C)CC(=O)N[C@H](Cc2ccccc2)COc2cc3c(cc2C(=O)N[C@H](C(=O)NCCc2ccc4c(c2)OCCO4)CC(=O)N1C)OCO3` [Example 226, (7R,13S,17S)-7-benzyl-N-(2-(2,3-dihydrobenzo[b][1,4]dioxin-6-yl)ethyl)-13-isobutyl-11,14-dimethyl-9,12,15,19-tetraoxo-6,7,8,9,10,11,12,13,14,15,16,17,18,19-tetradecahydro-[1,3]dioxolo[4′,5′:4,5]benzo[1,2-p][1]oxa[4,7,10,14]tetraazacycloheptadecine-17-carboxamide], the pEC50 was 6.28 and the maximum response (Emax) worked out at 213%.

Regarding `CCc1ccc(CCNC(=O)[C@@H]2CC(=O)N(C)[C@@H](CC(C)C)C(=O)N(C)CC(=O)N[C@H](Cc3ccccc3)COc3cc4c(cc3C(=O)N2)OCO4)cc1` [Example 227, (7R,13S,17S)-7-benzyl-N-(4-ethylphenethyl)-13-isobutyl-11,14-dimethyl-9,12,15,19-tetraoxo-6,7,8,9,10,11,12,13,14,15,16,17,18,19-tetradecahydro-[1,3]dioxolo[4′,5′:4,5]benzo[1,2-p][1]oxa[4,7,10,14]tetraazacycloheptadecine-17-carboxamide], the pEC50 is 6.54 and the Emax came out at 103%.

On to `COc1ccc2c(c1)C(=O)N[C@H](C(=O)NCCc1ccc3c(c1)OCO3)CC(=O)N(C)[C@@H](CC(C)C)C(=O)N(C)CC(=O)N[C@H](Cc1ccccc1)CO2` [Example 228, (3R,9S,13S)-N-(2-(benzo[d][1,3]dioxol-5-yl)ethyl)-3-benzyl-9-isobutyl-17-methoxy-7,10-dimethyl-5,8,11,15-tetraoxo-2,3,4,5,6,7,8,9,10,11,12,13,14,15-tetradecahydrobenzo[p][1]oxa[4,7,10,14]tetraazacycloheptadecine-13-carboxamide], for which the negative logarithm of the EC50 (pEC50) is 6.34 and the Emax was found to be 190%.
